# Experiment: method code SF, from Hansch, C. & Leo, A. (1987). Log P database [Dataset]. Pomona College Medicinal Chemistry Project.
# Conditions: not given
row,Structure (SMILES),logP
1,NC1=NC(C(F)(F)F)(C(F)(F)F)NC1(C(F)(F)F)C(F)(F)F,3.35
2,CCCCC1OC(=O)c2cc([N+](=O)[O-])ccc21 (configuration not stated),2.92
3,CN(Cc1ccc([N+](=O)[O-])cc1)/N=N/c1ccc(C(=O)O)cc1,4.03
4,N#CC(C#N)=C(c1ccccc1)c1ccccc1,3.55
5,COc1ccccc1C,2.74
6,O=C(O)CCS,0.43
7,N#CSc1ccccc1,2.54
8,CSc1ccccc1NC(C)=O,1.53
9,O=S(=O)(Nc1ccccc1)c1ccccc1,2.58
10,Cn1ccccc1=O,-0.23
11,CC1=Nc2ccc([N+](=O)[O-])cc2S(=O)(=O)N1,0.65
12,NC(=O)c1ccc(F)cc1,0.91
13,COC(=O)c1cccc(NC(C)=O)c1,1.46
14,Cc1ccccc1OC(=O)N(C)C,1.86
15,O=c1[nH]ncc2ccccc12,0.75
16,Cc1cccc(/N=N/N(C)C)c1,2.85
17,CCOC(=O)C(=Cc1cccc([N+](=O)[O-])c1)C(=O)OCC,2.71
18,CC(=O)Nc1ccc(Cl)c(Cl)c1,2.96
19,CC(C)Cl,1.9
20,CC(=O)Nc1ccc2oc(C)c(C)c(=O)c2c1,1.79
21,CCCCCc1ccc(O)cc1,4.06
22,CC1=Nc2ccc(I)cc2S(=O)(=O)N1,1.61
23,NC(=O)CF,-1.05

row,Structure (SMILES),logP
1,O=C(c1ccncc1)c1ccc([N+](=O)[O-])cc1,1.76
2,O=C(O)COc1ccc(F)c(I)c1,2.42
3,CC1=NS(=O)(=O)c2ccc(C(F)(F)F)cc2N1,1.59
4,CC(=O)OCCC(=O)N(C)c1ccc(S(=O)(=O)N(C)C)cc1,0.26
5,CCCC=O,0.88
6,CN(C)c1cnnc(N(C)C)c1,0.84
7,Clc1ccc2[nH]c(CCCCc3nc4cc(Cl)ccc4[nH]3)nc2c1,1.85
8,CC(C)c1ccccc1O,2.88
9,CCOC(=O)N=[N+]([O-])c1ccccc1,2.53
10,O=c1[nH]c(=O)n([C@H]2C[C@H](O)[C@@H](CO)O2)cc1C(F)(F)F,-0.46
11,CCC(C)NC(=O)C=Cc1ccc(Cl)cc1 (configuration not stated),3.37
12,CCC(CC)C1=Nc2ccccc2S(=O)(=O)N1,1.88
13,Cc1oc2ccccc2c(=O)c1C,2.31
14,C=CC(=O)c1ccccc1,1.88
15,OCC(F)(F)C(F)(F)C(F)(F)F,1.81
16,COc1ccccc1C(=O)N(C)C,0.71
17,CC(=O)Nc1ccccc1C#N,0.57
18,COCCC(=O)N(C)c1ccc(S(=O)(=O)N(C)C)cc1,0.33
19,NC(=O)c1cccc(O)c1,0.39
20,C=C(CC(Cl)(Cl)Cl)c1ccccc1,4.56
21,O=C1OC(C2CCCCC2)c2ccccc21 (configuration not stated),3.34
22,CCOC(=O)C(=Cc1cccc(C)c1)C(=O)OCC,3.55

# Same assay, conditions: pH 1.0
row,Structure (SMILES),logD
1,CC(=O)c1ccccc1C(=O)O,0.81
2,COC(=O)c1ccccc1C(=O)O,1.13
3,Oc1cc(-c2ccccc2)on1,2.55
4,O=C(O)c1cccc([N+](=O)[O-])c1C(=O)O,0.75

# Same assay, conditions: pH 2.0
row,Structure (SMILES),logD
1,O=C(O)c1nccc2ccccc12,-0.53

# Same assay, conditions: pH 3.0
row,Structure (SMILES),logD
1,CC(=O)OCC1=C(C(=O)O)N2C(=O)C(NC(=O)COc3ccccc3)C2SC1 (configuration not stated),0.26

# Same assay, conditions: pH 5.0
row,Structure (SMILES),logD
1,O=c1cccccc1O,0.75
2,O=S(Cc1ccccn1)c1nc2ccccc2[nH]1 (configuration not stated),1.33

# Same assay, conditions: pH 5.4
row,Structure (SMILES),logD
1,COC(=O)c1cc2nc(S(=O)Cc3ncccc3C)[nH]c2cc1C (configuration not stated),2.4

# Same assay, conditions: pH 7.0
row,Structure (SMILES),logD
1,COc1ccccc1CO,1.13
2,CC(=O)Nc1cccc(OC(C)=O)c1,1.03

# Same assay, conditions: pH 7.3
row,Structure (SMILES),logD
1,Nc1ncnc2nc(-c3ccccc3)[nH]c12,2.31

# Same assay, conditions: pH 7.4
row,Structure (SMILES),logD
1,CN(C)/N=C/CCc1ccccc1,2.05
2,CCCCNc1c(C)n(C)c(=O)n(-c2ccccc2)c1=O,1.69
3,CN(C)/N=N/c1ccccc1C(N)=O,1.73
4,COC1OCC(O)C(NC(=O)N(C)N=O)C1O (configuration not stated),-1.08
5,C=CCN(CC=C)c1c(C)n(-c2ccccc2)c(=O)n(C)c1=O,2.59

# Same assay, conditions: pH 7.5
row,Structure (SMILES),logD
1,O=C[C@H](O)[C@@H](O)[C@H](O)[C@H](O)CO,-1.88

# Same assay, conditions: pH 10.8
row,Structure (SMILES),logD
1,CNC(=S)NCCSCc1nc[nH]c1C,0.59

# Same assay, conditions: pH 11.0
row,Structure (SMILES),logD
1,CC(C)NCc1cccnc1,0.82
2,CN(C)C=CCCc1cccnc1,1.68
3,CCCCNCc1cccnc1,1.34
4,N=c1ccn2c(n1)OC1C(O)C(CO)OC12 (configuration not stated),-2.37

# Same assay, conditions: pH 12.3
row,Structure (SMILES),logD
1,CCC[C@H]1CN[C@H](C(=O)N[C@@H]([C@H]2O[C@H](SC)[C@H](O)[C@@H](O)[C@H]2O)[C@H](C)Cl)C1,1.69

# Same assay, conditions: pH 13.0
row,Structure (SMILES),logD
1,CC(=O)c1cccc(N2C(N)=NC(N)=NC2(C)C)c1,-0.22
2,CN[C@@H](C)Cc1ccccc1,2.07
3,CC1(C)N=C(N)N=C(N)N1c1cccc(COc2cccc(NC(N)=O)c2)c1,0.9
4,CN(Cc1ccccc1)c1ccccc1,4.22
5,CC(=O)Nc1cccc(OCc2cccc(/N=C(\N)N=C(N)N)c2)c1,1.82
6,NN(c1ccccc1)c1ccccc1,2.8
7,COC(OC)(OC)c1ccccc1,2.27
8,CC(=O)Nc1cccc(OCc2cccc(N3C(N)=NC(N)=NC3(C)C)c2)c1,1.15

# From the SangsterLogP compilation
